The values below are quoted from earlier work in patent US20190219580A1, “METHODS OF DRUG THERAPY SELECTION FOR BREAST CANCER PATIENTS BASED ON HER2 AND HER3 PATHWAY SUBTYPING” (Nestec S.A., priority 2016, published 2019).

Where two headings read alike, the source gives them in different places.

Series [1] has as its system HER2-positive metastatic and locally advanced breast cancer. To be noted: first-line therapy.
Series [2] concerns HER2-positive breast cancer.
Series [3] has as its system HER2-positive, locally advanced disease without previous treatment.
The next series deals with breast cancer. The conditions noted are these: monotherapy.
Series [4] concerns tumor xenografts which overexpress HER2. The conditions noted are these: in vivo.
In series [5] the test system is progressive, locally advanced, or metastatic HER2-positive breast cancer. The conditions noted are these: human, in vivo.
The mark [6] stands for this setting: trastuzumab-refractory patients.

Take `CS(=O)(=O)CCNCc1ccc(-c2ccc3ncnc(Nc4ccc(OCc5cccc(F)c5)c(Cl)c4)c3c2)o1` [lapatinib]: the overall response rate in series [1] is on record as 24%. The “toxicity in the run-in phase” value in series [2] (with EC-DOC) is recorded as “lowered due to toxicity”. For the same compound, the “pCR rate (no invasive disease in breast)” value in series [2] (with epirubicin, cyclophosphamide followed by docetaxel (EC-DOC), n=620) was 35%. Moreover, the pCR rate in series [3] (patients with low PTEN expression and PI3 kinase mutation) was 87%; in series [3] (single agent first, followed by trastuzumab/docetaxel ×4 cycles) it was 68%. For the same compound, the response rate with breast cancer (trastuzumab-naive patients) is recorded as 24%; in the series on breast cancer (setting [6]) it was 5.1%.

As to `CCOc1cc2ncc(C#N)c(Nc3ccc(OCc4ccccn4)c(Cl)c3)c2cc1NC(=O)/C=C/CN(C)C` [neratinib], in the series with BT474 cell lines, the “phosphorylation of MAPK and AKT signal transduction pathways” value was “effectively repressed”. Besides, the tumor growth result in series [4] is “repress tumor growth in a dose-dependent manner”. Moreover, the response rate is on record as 56% with breast cancer (trastuzumab-naive patients) and 26% in the series on breast cancer (setting [6]).

Turning to `CCCCCOC(=O)Nc1nc(=O)n([C@@H]2O[C@H](C)[C@@H](O)[C@H]2O)cc1F` [capecitabine], the “median TTP” value in series [5] is recorded as 4.4 months.
